In brackets after ≈: the same amount, converted by molar mass. Read-outs that look alike come from different tables or passages of the source. Each block holds one molecule with its values, some of them ahead of it.
How the values were obtained:
MRSA = experiment: MIC screening, broth microdilution (CLSI)
Streptococci = experiment: MIC screening, broth microdilution (CLSI)
Enterococci = experiment: MIC screening, broth microdilution (CLSI)
Haemophilus influenzae = experiment: MIC screening, broth microdilution (CLSI)
[1] = tested on: Acinetobacter calcoaceticus; experiment: MIC screening, broth microdilution (CLSI)
Escherichia coli = experiment: MIC screening, broth microdilution (CLSI)
Klebsiella pneumoniae = experiment: MIC screening, broth microdilution (CLSI)
Pseudomonas aeruginosa = experiment: MIC screening, broth microdilution (CLSI)
Staphylococcus aureus = experiment: MIC screening, broth microdilution (CLSI)
[2] = background statement; cited from earlier work

MIC (MRSA; Staphylococcus aureus (ATCC 43300), Exp 2): 0.25 µg/mL (≈ 0.692 µM)
MIC (MRSA; Staphylococcus aureus (MRSA, Erythromycin & clindamycin-resistant), Exp 2): 8 µg/mL (≈ 22.1 µM)
MIC (MRSA; Staphylococcus aureus, ATCC43300 / MRSA): 0.25 µg/mL (≈ 0.692 µM)
MIC (MRSA; Staphylococcus aureus, MRSA): 8 µg/mL (≈ 22.1 µM)
MIC (Streptococci; Streptococcus pneumoniae, ATCC49619, Streptococcus pneumoniae (ATCC 49619), Exp 1): 0.5 µg/mL (≈ 1.38 µM)
MIC (Streptococci; Streptococcus pneumoniae, ATCC49619, Streptococcus pneumoniae (ATCC 49619), Exp 2): 0.5 µg/mL (≈ 1.38 µM)
MIC (Streptococci; Streptococcus pneumoniae, Streptococcus pneumoniae (Erythromycin-resistant), Exp 1): 1 µg/mL (≈ 2.77 µM)
MIC (Streptococci; Streptococcus pneumoniae, Streptococcus pneumoniae (Erythromycin-resistant), Exp 2): 1 µg/mL (≈ 2.77 µM)
MIC (Streptococci; Streptococcus pyogenes, ATCC700942, Streptococcus pyogenes (ATCC 700942), Exp 1): 0.5 µg/mL (≈ 1.38 µM)
MIC (Streptococci; Streptococcus pyogenes, ATCC700942, Streptococcus pyogenes (ATCC 700942), Exp 2): 0.5 µg/mL (≈ 1.38 µM)
MIC (Enterococci; Enterococcus faecalis, ATCC29212, Enterococcus faecalis (ATCC 29212), Exp 1): 1 µg/mL (≈ 2.77 µM)
MIC (Enterococci; Enterococcus faecalis, ATCC29212, Enterococcus faecalis (ATCC 29212), Exp 2): 1 µg/mL (≈ 2.77 µM)
MIC (Enterococci; Enterococcus faecium, ATCC700221, Enterococcus faecium (ATCC 700221), Exp 1): > 64 µg/mL
MIC (Enterococci; Enterococcus faecium, ATCC700221, Enterococcus faecium (ATCC 700221), Exp 2): > 64 µg/mL
MIC (Haemophilus influenzae): < 0.0625 µg/mL
MIC (Haemophilus influenzae; Exp 2): <0.0625 µg/mL
MIC [1]: 4 µg/mL (≈ 11.1 µM)
MIC ([1]; Exp 2): 4 µg/mL (≈ 11.1 µM)
MIC (Escherichia coli; Exp 1): < 0.0625 µg/mL
MIC (Escherichia coli; Exp 2): < 0.0625 µg/mL
MIC (Klebsiella pneumoniae): 1 µg/mL (≈ 2.77 µM)
MIC (Klebsiella pneumoniae; Exp 2): 1 µg/mL (≈ 2.77 µM)
MIC (Pseudomonas aeruginosa): 1 µg/mL (≈ 2.77 µM)
MIC (Pseudomonas aeruginosa; Exp 2): 1 µg/mL (≈ 2.77 µM)
MIC (Staphylococcus aureus; ATCC29213, Staphylococcus aureus (ATCC 29213), Exp 1): 0.5 µg/mL (≈ 1.38 µM)
MIC (Staphylococcus aureus; ATCC29213, Staphylococcus aureus (ATCC 29213), Exp 2): 0.25 µg/mL (≈ 0.692 µM)
MIC (Staphylococcus aureus; Staphylococcus aureus (Levofloxacin-resistant), Exp 1): 64 µg/mL (≈ 177 µM)
MIC (Staphylococcus aureus; Staphylococcus aureus (Levofloxacin-resistant), Exp 2): 64 µg/mL (≈ 177 µM)
SMILES: C[C@H]1COc2c(N3CCN(C)CC3)c(F)cc3c(=O)c(C(=O)O)cn1c23 [Levofloxacin, reference compound]

SMILES: Oc1ccc(/C=C/c2cc(O)cc(O)c2)cc1 [Resveratrol]
oral bioavailability [2]: very poor oral bioavailability
